From patent publication US20190369122A1, “METABOLIC DISORDERS” (priority 2016, published 2019)

Legend:
[1] = system: HEK293 cells; assay: Signaling in HEK293 cells (immunoblot); type: cell-based, human; conditions: for inhibition of imidazole propionate-induced phosphorylation of p62 and S6K1: 10 μM, 30 min pretreatment, ImP 100 μM 1 h
Procedure: (§1) Snap-frozen liver and harvested cells were lysed in buffer containing 50 mM Tris-HCl (pH 7.4), 150 mM NaCl, 1 mM EDTA, 1 mM Na3VO4, 20 mM NaF, 10 mM glycerophosphate, 1 mM PMSF, 10% glycerol, 1% Triton X-100 and protease inhibitor cocktail. For immunoprecipitation, the cell lysates were obtained in 0.3% CHAPS-containing lysis buffer, sonicated and centrifuged at 20,000 g for 15 min at 4° C., and the supernatant was incubated with 20 μl of anti-FLAG beads (Sigma) at 4° C. for 4 h under gentle agitation.
HEK293 cells (ATCC CRL-1573) were grown and maintained in high-glucose (4.5 g/l glucose) DMEM with 10% (v/v) FBS. […] 24 h after transfection (with plasmids or siRNA as indicated), HEK293 cells cultured in poly-L-lysine-coated 60 mm dishes were rinsed twice with DMEM without FBS and incubated in serum-free DMEM for 18 h. HEK293 cells were then washed once with EBSS and incubated in EBSS for 1 h.

[2] = system: p38α/p38β; conditions: cited from earlier work
[3] = system: p38γ/p38δ; conditions: cited from earlier work
[4] = system: primary hepatocytes; assay: Insulin signaling in primary hepatocytes (immunoblot); type: cell-based, mouse; conditions: rapamycin 20 nM, Torin 1 50 nM, ImP 100 μM
Procedure: as §1
Primary hepatocytes were isolated from C57BL/6J mice by digesting liver with perfusion of collagenase type IV as described previously. After perfusion, 16×10^5 cells were plated on collagen-coated 60 mm dishes in Dulbecco's modified Eagle's medium (DMEM)/F12 supplemented with fetal bovine serum (FBS), penicillin/streptomycin and 100 nM dexamethasone. After 4 h, the medium was changed to DMEM/F12 containing penicillin/streptomycin.

[5] = target: recombinant p62 (Abcam, ab95320), Q13501

## Cc1ccc(-n2nc(C(C)(C)C)cc2NC(=O)Nc2ccc(OCCN3CCOCC3)c3ccccc23)cc1 [BIRB796, 1-(5-tert-butyl-2-p-tolyl-2H-pyrazol-3-yl)-3-[4-(2-morpholin-4-yl-ethoxy)naphthalen-1-yl]urea]
[1]; amino acid-deprived HEK293
  inhibition of imidazole propionate-induced phosphorylation of p62 and S6K1: inhibited
[2]
  inhibition of p38α/p38β: inhibits the entire p38 subfamily
[3]
  inhibition of p38γ/p38δ: inhibits the entire p38 subfamily

## CC(C)C[C@H](N)C(=O)O [Leucine, reference compound]
[1]; HEK293, after only 15 min, transient
  S6K1 phosphorylation: increased
[1]; absence of amino acids
  time to mTORC1 activation: ≤ 15 min

## NC1(c2ccc(-c3nc4ccn5c(=O)[nH]nc5c4cc3-c3ccccc3)cc2)CCC1 [MK2206, reference compound]
[1]
  effect on imidazole propionate-induced Akt activation: efficiently blocked
[1]; absence of amino acids
  effect on imidazole propionate-induced S6K1 phosphorylation: did not affect
[1]; presence of amino acids
  effect on imidazole propionate-induced S6K1 phosphorylation: inhibition

## Oc1ccc(-c2nc(-c3ccncc3)c(-c3ccc(F)cc3)[nH]2)cc1 [SB202190]
[1]; amino acid-deprived HEK293
  inhibition of imidazole propionate-induced phosphorylation of p62 and S6K1: not
[2]
  inhibition of p38α/p38β: inhibited

## N[C@@H](Cc1c[nH]cn1)C(=O)O [histidine, reference compound]
[1]; amino acid-deprived HEK293, 100 μM for 1 h
  phosphorylation of p62 or S6K1: neither

## CCC(=O)N1CCN(c2ccc(-n3c(=O)ccc4cnc5ccc(-c6cnc7ccccc7c6)cc5c43)cc2C(F)(F)F)CC1 [torin 1, 1-[4-[4-(1-oxopropyl)-1-piperazinyl]-3-(trifluoromethyl)phenyl]-9-(3-quinolinyl)-benzo[h]-1,6-naphthyridin-2(1H)-one, reference compound]
[4]
  effect on imidazole propionate-induced S6K1 phosphorylation: reversed
  inhibition of imidazole propionate-induced reduction of IRS: inhibited

## insulin: insulin from Sigma-Aldrich, used at 5 nM
[1]; HEK293, insulin 5 nM, absence of amino acids or imidazole propionate
  mTORC1 activation, as measured by S6K1 phosphorylation: did not lead to mTORC1 activation

B1: recombinant p38γ (Abcam, ab125651) (protein)
chain: MSSPPPARSGFYRQEVTKTAWEVRAVYRDLQPVGSGAYGAVCSAVDGRTGAKVAIKKLYRPFQSELFAKRAYRELRLLKHMRHENVIGLLDVFTPDETLDDFTDFYLVMPFMGTDLGKLMKHEKLGEDRIQFLVYQMLKGLRYIHAAGIIHRDLKPGNLAVNEDCELKILDFGLARQADSEMTGYVVTRWYRAPEVILNWMRYTQTVDIWSVGCIMAEMITGKTLFKGSDHLDQLKEIMKVTGTPPAEFVQRLQSDEAKNYMKGLPELEKKDFASILTNASPLAVNLLEKMLVLDAEQRVTAGEALAHPYFESLHDTEDEPQVQKYDDSFDDVDRTLDEWKRVTYKEVLSFKPPRQLGARVSKETPL
[5]
  p62 phosphorylation (T269 and S272), in vitro kinase assay: p62 phosphorylation, at T269 and S272, was induced by p38γ in the presence of 50 µM ATP, which was further increased with 200 µM ATP
